BindingDB's records for patent US11802133 (Hoffmann-La Roche, 2023)

Target: T1, Monoglyceride lipase (Homo sapiens, UniProt Q99685)
T1 sequence (Q99685 whole entry): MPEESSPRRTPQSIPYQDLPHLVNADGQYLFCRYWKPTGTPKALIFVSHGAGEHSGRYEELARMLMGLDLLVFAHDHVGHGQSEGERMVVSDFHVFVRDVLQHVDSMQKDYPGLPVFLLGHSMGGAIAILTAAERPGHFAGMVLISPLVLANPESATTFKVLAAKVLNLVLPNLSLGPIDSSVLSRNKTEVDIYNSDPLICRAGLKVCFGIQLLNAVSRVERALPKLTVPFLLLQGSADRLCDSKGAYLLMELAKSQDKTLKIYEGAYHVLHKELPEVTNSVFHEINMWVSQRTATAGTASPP
Assay: MAGL Inhibitory Activity Assay
Procedure: The plate was shaked for 1 min at 2000 rpm (Variomag Teleshake) and then incubated for 15 min at RT. […] The final concentrations in the assay were 1 nM MAGL and 300 μM 4-Nitrophenylacetate. […] A second measurement was then done after incubation for 80 min at RT. From the two measurements, the slope was calculated by subtracting the first from the second measurement.

Row | SMILES | IC50 [nM]
1 | O=C1CO[C@H]2CCN(C(=O)N3CC(CCc4ccc(O)cc4C(F)(F)F)C3)C[C@H]2N1 [US11802133, Example 293] | 30
2 | O=C1CO[C@H]2CCN(C(=O)N3CC(OCc4cccc(OC(F)(F)F)c4)C3)C[C@H]2N1 [US11802133, Example 226] | 45
